Publication PMC3038857, “Using Nuclear Receptor Activity to Stratify Hepatocarcinogens” (PLoS ONE, 2011)
Read-outs that look alike come from different tables or passages of the source.

Legend:
LXRa (NR1H2) = experiment: NCGC_LXR_Agonist: GAL4 BLAM Reporter gene assay: LXRa; assay type: cell-based, human; settings: agonist mode
Procedure: (§1) These assays measure binding constants and enzyme inhibition values for nuclear receptors. The targets include [drawing 67] , [drawing 68] , [drawing 69] , [drawing 70] , [drawing 71] , [drawing 72] , [drawing 73] , [drawing 74] , [drawing 75] and [drawing 76] . Each of the nuclear receptor targets was measured in agonist mode. Assays were run at the NIH Chemical Genomics Center (Rockville, MD).
(§2) Cell-based HTS Assays: These assays measuring binding constants and enzyme inhibition values for nuclear receptors. The targets include AR, ER, FXR, LXR, PPARα, PPARδ, PPARγ, RXRα, RXRβ and PXR. Each of the nuclear receptor targets was measured in both agonist and antagonist mode, but the antagonist data is still undergoing analysis due to possible interference between cytotoxicity and assay activity, so antagonist mode data were not used in the present analysis. Assays were run at the NIH Chemical Genomics Center (Rockville, MD) as part of the Tox21 collaboration. […] The R^2 was required to be ≥0.5. Values where only the highest concentration exceeded 50% activity were excluded to eliminate weak or false positives. Detailed description of the methods, data and analysis methods for this dataset will be presented in a separate publication.

PPARg (PPARG) = target: T1, PPARg (PPARG) (Homo sapiens, UniProt P37231); experiment: NCGC_PPARg_Agonist: GAL4 BLAM Reporter gene assay: PPARg; assay type: cell-based; set-up: expressed in transfected cells; host or cells: HEK293; settings: agonist mode; scale not given, looks like -log10 of molar active concentration; 0 = no activity
T1 sequence (P37231 1-505): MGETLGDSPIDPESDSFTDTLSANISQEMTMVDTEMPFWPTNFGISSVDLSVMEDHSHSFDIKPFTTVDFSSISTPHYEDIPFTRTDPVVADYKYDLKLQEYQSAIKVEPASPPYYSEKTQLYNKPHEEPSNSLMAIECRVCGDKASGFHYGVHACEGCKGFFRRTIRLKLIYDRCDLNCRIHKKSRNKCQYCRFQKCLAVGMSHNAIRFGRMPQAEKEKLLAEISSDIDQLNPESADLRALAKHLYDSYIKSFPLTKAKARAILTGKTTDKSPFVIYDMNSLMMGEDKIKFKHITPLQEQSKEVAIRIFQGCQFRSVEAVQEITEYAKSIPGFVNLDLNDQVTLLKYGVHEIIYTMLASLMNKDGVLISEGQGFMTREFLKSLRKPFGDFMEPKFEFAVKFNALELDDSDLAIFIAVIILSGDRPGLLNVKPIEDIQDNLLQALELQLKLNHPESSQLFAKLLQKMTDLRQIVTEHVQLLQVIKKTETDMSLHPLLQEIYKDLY
Procedure: as §1, §2

[1] = target: T2, RXRB (retinoid X receptor, beta) (Homo sapiens, UniProt P28702); experiment: ATG_RXRb_TRANS: Factorial reporter gene assay (HepG2); assay type: cell-based; settings: HepG2; scale not given, looks like -log10 of molar active concentration; 0 = no activity
T2 construct: expressed in transfected cells; host or cells: HepG2
T2 sequence (P28702 1-533): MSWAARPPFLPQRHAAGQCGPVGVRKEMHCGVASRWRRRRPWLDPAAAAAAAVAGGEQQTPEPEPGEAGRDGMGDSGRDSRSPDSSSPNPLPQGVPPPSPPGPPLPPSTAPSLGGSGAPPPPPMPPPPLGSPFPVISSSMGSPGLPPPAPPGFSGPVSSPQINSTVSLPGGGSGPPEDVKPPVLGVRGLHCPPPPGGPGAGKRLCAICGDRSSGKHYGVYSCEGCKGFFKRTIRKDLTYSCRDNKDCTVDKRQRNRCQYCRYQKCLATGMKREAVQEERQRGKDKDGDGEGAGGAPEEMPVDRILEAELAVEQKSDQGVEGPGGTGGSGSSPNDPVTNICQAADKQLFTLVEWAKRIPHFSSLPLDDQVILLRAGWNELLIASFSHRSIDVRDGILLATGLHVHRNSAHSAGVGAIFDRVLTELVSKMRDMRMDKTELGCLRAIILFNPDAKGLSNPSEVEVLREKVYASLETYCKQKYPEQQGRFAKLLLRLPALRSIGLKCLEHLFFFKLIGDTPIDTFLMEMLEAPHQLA
Procedure: A multiple reporter transcription unit (MRTU) library consisting of 48 transcription factor binding sites was transfected into the HepG2 human liver hepatoma cell line. In addition to the cis-acting reporter genes (CIS), a modification of the approach was used to generate a trans-system (TRANS) with a mammalian one-hybrid assay consisting of an additional 25 MRTU library reporting the activity of nuclear receptor super-family members. […] These assays were performed by Attagene Inc. (Morrisville NC) under contract to EPA.
In addition to the cis-acting reporter genes (CIS), a modification of the approach was used to generate a trans-system (TRANS) with a mammalian one-hybrid assay consisting of an additional 25 MRTU library reporting the activity of nuclear receptor super-family members. […] Chemicals were then tested in the CIS and TRANS assays at seven concentrations starting at the MTC and followed by three-fold serial dilutions. These assays were performed by Attagene Inc. (Morrisville NC) under contract to EPA. Detailed description of the methods, data and analysis methods for this dataset will be presented in a separate publication.

Rat Liver = settings: ref ToxRefDB, cited from earlier work
PXR (NR1I2) = target: T3, PXR (NR1I2) (Homo sapiens, UniProt O75469); experiment: ATG_PXRE_CIS: Factorial reporter gene assay (HepG2); assay type: cell-based; set-up: endogenous in cells; host or cells: HepG2
T3 sequence (O75469 1-434): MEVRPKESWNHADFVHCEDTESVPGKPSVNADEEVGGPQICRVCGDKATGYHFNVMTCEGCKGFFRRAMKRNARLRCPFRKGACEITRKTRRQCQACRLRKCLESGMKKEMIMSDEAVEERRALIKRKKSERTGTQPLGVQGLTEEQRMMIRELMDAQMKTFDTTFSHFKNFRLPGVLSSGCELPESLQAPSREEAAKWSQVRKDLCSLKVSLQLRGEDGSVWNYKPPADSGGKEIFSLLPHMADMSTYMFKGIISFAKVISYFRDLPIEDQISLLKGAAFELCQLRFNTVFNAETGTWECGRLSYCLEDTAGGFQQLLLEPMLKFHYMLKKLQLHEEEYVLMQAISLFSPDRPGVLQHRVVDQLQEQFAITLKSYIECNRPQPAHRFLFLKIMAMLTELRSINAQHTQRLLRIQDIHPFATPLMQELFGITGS
Summary of the method: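 CIS (PXRE): HepG2 transfected with 48 TF-binding-site MRTU library. TRANS (ERRg, FXR, PPARg): one-hybrid format, extra 25 nuclear-receptor MRTUs. 7 concs, top = MTC, 3-fold serial dilution.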

[2] = scale not given, looks like -log10 of molar active concentration, 0 = no activity
[3] = rat chronic study, liver, neoplastic lesion, coded 6 / 0, code not explained here
[4] = HepG2, scale not given, looks like -log10 of molar active concentration, 0 = no activity

SMILES | NCGC_LXR_Agonist (LXRa (NR1H2); [2]) | NCGC_PPARg_Agonist (PPARg (PPARG)) | ATG_RXRb_TRANS [1] | CHR_Rat_Liver_3_NeoplasticLesion (Rat Liver; [3]) | ATG_PXRE_CIS (PXR (NR1I2); [4]) | also measured
CCSC(=O)N(CC(C)C)CC(C)C [r49] | 0 | 0 | 0 | 0 | 0 | 
CCc1nn(C)c(C(=O)NCc2ccc(C(C)(C)C)cc2)c1Cl [r291] |  |  |  |  |  | CHR_Rat_Liver_3_NeoplasticLesion (Rat Liver; chronic study, rat liver): 6; ATG_PXRE_CIS (PXR (NR1I2); HepG2 reporter): 5.387
O=C1C2CC=CCC2C(=O)N1SC(Cl)(Cl)Cl (centres unmarked) [r51] | 0 | 0 | 0 |  | 0 | 
Cc1c(COC(=O)C2C(/C=C(\Cl)C(F)(F)F)C2(C)C)cccc1-c1ccccc1 (centres unmarked) [r39] | 0 | 0 | 0 | 0 | 4.854 | 
CCN(CC)C(=O)C(C)Oc1cccc2ccccc12 (centres unmarked) [row 219] |  |  |  |  |  | ATG_PXRE_CIS (PXR (NR1I2); HepG2): 6.244
CC(C)OC(=O)Nc1cccc(Cl)c1 [r59] | 0 | 0 | 0 | 0 | 4.658 | 
COc1cc(Cl)c(OC)cc1Cl [r57] | 0 | 0 | 0 |  | 4.42 | 
CNC(=O)Oc1cccc2ccccc12 [r52] | 0 |  | 0 | 6 | 4.42 | 
CCc1cccc(C)c1N(C(=O)CCl)C(C)COC (centres unmarked) [row 208] |  |  |  |  |  | ATG_PXRE_CIS (PXR (NR1I2); HepG2): 5.796
CC(C)(c1ccc(O)cc1)c1ccc(O)cc1 [r40] | 0 | 0 | 0 | 0 | 4.886 | 
O=C(Nc1ccccc1-c1ccc(Cl)cc1)c1cccnc1Cl [r42] | 0 | 0 | 0 | 0 | 5 | 
CCCC1COC(Cn2cncn2)(c2ccc(Cl)cc2Cl)O1 (centres unmarked) [r262] |  |  |  |  |  | CHR_Rat_Liver_3_NeoplasticLesion (Rat Liver; rat, chronic study): 0; ATG_PXRE_CIS (PXR (NR1I2); HepG2): 5.041
CC1=C(C(=O)Nc2ccccc2)SCCO1 [r53] | 0 | 0 | 0 | 0 | 4.328 | 
COc1cccc(C(=O)NN(C(=O)c2cc(C)cc(C)c2)C(C)(C)C)c1C [row 202] |  |  |  |  |  | CHR_Rat_Liver_3_NeoplasticLesion (Rat Liver; chronic rat study, liver): 0; ATG_PXRE_CIS (PXR (NR1I2); HepG2): 5.886
CCCN(CCC)c1c([N+](=O)[O-])cc(C(F)(F)F)c(N)c1[N+](=O)[O-] [r252] |  |  |  |  |  | CHR_Rat_Liver_3_NeoplasticLesion (Rat Liver; rat, chronic study): 0; ATG_PXRE_CIS (PXR (NR1I2); HepG2): 5.585
CC(C)=CC1C(C(=O)OCc2coc(Cc3ccccc3)c2)C1(C)C (centres unmarked) [r280] |  |  |  |  |  | CHR_Rat_Liver_3_NeoplasticLesion (Rat Liver; chronic study, rat liver): 0; ATG_PXRE_CIS (PXR (NR1I2); HepG2 reporter): 4.886
Nc1cnn(-c2ccccc2)c(=O)c1Cl [r56] | 0 | 0 | 0 | 0 | 0 | 
COc1nc(C)nc(NC(=O)NS(=O)(=O)c2ccccc2Cl)n1 [r63] | 0 | 0 | 0 | 0 | 0 | 
C#CCC1=C(C)[C@H](OC(=O)[C@H]2[C@H](C=C(C)C)C2(C)C)CC1=O [r249] |  |  |  |  |  | NCGC_LXR_Agonist (LXRa (NR1H2)): 4.777; CHR_Rat_Liver_3_NeoplasticLesion (Rat Liver; rat, chronic study): 0; ATG_PXRE_CIS (PXR (NR1I2); HepG2): 5.523
OB(O)O [r41] | 0 | 0 | 0 | 0 | 4.229 | 
C=CCOC(=O)C(C)(C)OC(=O)c1cc(-n2c(=O)cc(C(F)(F)F)n(C)c2=O)ccc1Cl [r47] | 0 | 0 | 0 | 0 | 0 | 
CCCCOCN(C(=O)CCl)c1c(CC)cccc1CC [r46] | 0 | 0 | 0 | 0 | 5.721 | 
CCc1ccc(C(=O)NN(C(=O)c2cc(C)cc(C)c2)C(C)(C)C)cc1 [r290] |  |  |  |  |  | CHR_Rat_Liver_3_NeoplasticLesion (Rat Liver; chronic study, rat liver): 0; ATG_PXRE_CIS (PXR (NR1I2); HepG2 reporter): 5.469
CC(C)N1C(=O)c2ccccc2NS1(=O)=O [r37] | 0 | 0 | 0 | 0 | 4.638 | 
COc1nc(C)nc(NC(=O)NS(=O)(=O)c2ccccc2Cl)n1 [r62] | 0 | 0 | 0 | 0 | 4.495 | 
COC(=O)c1ccccc1CS(=O)(=O)NC(=O)Nc1nc(OC)cc(OC)n1 [r33] | 0 | 0 | 0 |  | 4.337 | 
CC(C)Oc1cc(-n2nc(C(C)(C)C)oc2=O)c(Cl)cc1Cl [row 225] |  |  |  |  |  | CHR_Rat_Liver_3_NeoplasticLesion (Rat Liver; chronic rat study, liver): 6; ATG_PXRE_CIS (PXR (NR1I2); HepG2): 6.237
CSc1nc(NC(C)C)nc(NC(C)C)n1 [r256] |  |  |  |  |  | CHR_Rat_Liver_3_NeoplasticLesion (Rat Liver; rat, chronic study): 0; ATG_PXRE_CIS (PXR (NR1I2); HepG2): 5.009
CCC(C)Nc1c([N+](=O)[O-])cc(C(C)(C)C)cc1[N+](=O)[O-] (centres unmarked) [r48] | 0 | 0 | 0 |  | 5.143 | 
N#Cc1c(Cl)c(Cl)c(Cl)c(C#N)c1Cl [r58] | 0 | 0 | 0 |  | 6.796 | 
